In US8815535B2, “Disk diffusion assay for oritavancin” (The Medicines Company, priority 2011, dated 2014):
Read-outs that look alike come from different tables or passages of the source.

What was measured:
Test in all cases: Disk diffusion assay (zone of inhibition)
VISA Mu50 (ATCC 700699) = type: cell-based, Staphylococcus aureus; settings: for zone of inhibition at 360 µg/disc: ATCC 700699; for zone of inhibition at 100 µg/disc: 100 μg in 4% P80/Span 80 (1:1); for zone of inhibition at 200 µg/disc: 200 μg in 4% P80/Span 80 (1:1)
Text: The study was designed to identify conditions that improve oritavancin diffusion in agar and consequently yield a zone diameter ≧15 mm for the CLSI quality control strain MSSA ATCC 25923. Excipients that increased the disk diffusion of oritavancin in agar relative to disks containing only oritavancin were identified and selected for further study. […] A prediffusion step at room temperature was introduced to maximize oritavancin diffusion prior to initiation of bacterial growth. […] Plates were then incubated overnight at 37° C. Zone diameters around the disks in which bacterial growth was inhibited were measured with a ruler and reported in millimeters.
(§1) Ethanol-sterilized Whatman paper disks (6 mm diameter) were allowed to dry then impregnated with 20 microliters of oritavancin solution containing total amounts ranging from 90 to 360 micrograms. Disks were allowed to dry at room temperature for various times prior to use.
Bacterial suspensions were prepared and adjusted to an optical density of 0.1 at 600 nm. Standard cation-adjusted Mueller Hinton agar plates (90 mm diameter) were seeded with bacterial suspensions by initially swabbing the center of plate then moving outward towards the edge. The plate was swabbed a second time, perpendicular to the orientation of the first swab. […] After 3 hours, two additional disks were placed on the other half of the plate then the plate was incubated overnight at 37° C. Zone diameters were measured with a ruler and reported in millimeters.
Oritavancin powder was dissolved in freshly-prepared solutions of the indicated excipients at concentrations of 0.625, 1.25, 2.5, 5, and 10 mg/ml (adjusted for potency based on lot 875561L00 purity of 83.1%) by vortexing for a minimum of 5 minutes. Oritavancin solutions in the various excipients, while not visually clear, were free from any apparent particulates as assessed visually. Sterile Oxoid blank disks were impregnated with 20 μl of these oritavancin solutions, resulting in oritavancin disk loads ranging from 12.5 to 200 μg. Unless indicated otherwise, disks were allowed to dry overnight at room temperature prior to use.
Bacterial suspensions from isolated colonies on overnight cation-adjusted Mueller Hinton agar plates were prepared in sterile saline and adjusted to an optical density of 0.1 at 600 nm Standard cation-adjusted Mueller Hinton agar plates (90 mm diameter) were seeded with bacterial suspensions by initially swabbing the center of plate then moving outward. Swabbing was continued at a right angle and then at an oblique angle to the first and second swabs. Disks were placed upon the seeded plates with sterile forceps. Plates were then incubated overnight at 37° C. and inhibition zone diameters were measured with a ruler and reported in millimeters.

MRSA NRS121-ORI^RS = type: cell-based; settings: Staphylococcus aureus, read-out: Zone diameter (mm ± SD)
Text: (§2) The study was designed to identify conditions that improve oritavancin diffusion in agar and consequently yield a zone diameter ≧15 mm for the CLSI quality control strain MSSA ATCC 25923. Excipients that increased the disk diffusion of oritavancin in agar relative to disks containing only oritavancin were identified and selected for further study. […] A prediffusion step at room temperature was introduced to maximize oritavancin diffusion prior to initiation of bacterial growth. In this step, the antimicrobial disks were placed on agar plates seeded with a bacterial isolate and incubated at room temperature for 3 hours. Plates were then incubated overnight at 37° C. Zone diameters around the disks in which bacterial growth was inhibited were measured with a ruler and reported in millimeters.
as §1
(§3) Bacterial suspensions were prepared and adjusted to an optical density of 0.1 at 600 nm. Standard cation-adjusted Mueller Hinton agar plates (90 mm diameter) were seeded with bacterial suspensions by initially swabbing the center of plate then moving outward towards the edge. The plate was swabbed a second time, perpendicular to the orientation of the first swab. To assess the impact of prediffusion on diameter of inhibition zones, two disks were immediately placed on one half of the plate and the plate was incubated for 3 hours at room temperature. After 3 hours, two additional disks were placed on the other half of the plate then the plate was incubated overnight at 37° C. Zone diameters were measured with a ruler and reported in millimeters.

MRSA NRS123 = type: cell-based; settings: Staphylococcus aureus, 360 μg in 5% P80, Average of experiments, read-out: Zone diameter (mm ± SD)
Text: as §2, §1, §3

[1] = Staphylococcus aureus, Mu50, calcium alginate swab, dried overnight, read-out: Inhibition zone diameter
[2] = Staphylococcus aureus, Mu50, cotton swab, dried overnight, estimate of diameter

Which results are given for `CN[C@H](CC(C)C)C(=O)N[C@H]1C(=O)N[C@@H](CC(N)=O)C(=O)N[C@H]2C(=O)N[C@H]3C(=O)N[C@H](C(=O)N[C@H](C(=O)O)c4cc(O)cc(O)c4-c4cc3ccc4O)[C@H](O[C@H]3C[C@](C)(N)[C@@H](O)[C@H](C)O3)c3ccc(c(Cl)c3)Oc3cc2cc(c3O[C@@H]2O[C@H](CO)[C@@H](O)[C@H](O)[C@H]2O[C@H]2C[C@](C)(NCc3ccc(-c4ccc(Cl)cc4)cc3)[C@@H](O)[C@H](C)O2)Oc2ccc(cc2Cl)[C@H]1O` [oritavancin, N-(4-(4-chlorophenyl)benzyl)A82846B]?
Inhibition zone diameter (VISA Mu50 (ATCC 700699); Mu50, 12.5 μg in 4% P80/Span 80 (1:1), calcium alginate swab, dried overnight): no zone; Inhibition zone diameter (VISA Mu50 (ATCC 700699); Mu50, 12.5 μg in 4% P80/Span 80 (1:1), cotton swab, dried overnight, estimate of diameter): no zone; Inhibition zone diameter (VISA Mu50 (ATCC 700699); Mu50, 25 μg (20 μl of 1.25 mg/ml) in 4% P80/Span 80 (1:1), calcium alginate swab, dried overnight): no zone; Inhibition zone diameter (VISA Mu50 (ATCC 700699); Mu50, 20 μl of 1.25 mg/ml oritavancin in 5% Brij 30): no zone; zone of inhibition at 360 µg/disc (VISA Mu50 (ATCC 700699); Staphylococcus aureus, 3 h, 360 μg oritavancin, excipient 10% HPCD, disks made same day, 3 h prediffusion, average of 2 disks, read-out: Average zone diameter): 17.3 mm; zone of inhibition at 360 µg/disc (VISA Mu50 (ATCC 700699); Staphylococcus aureus, 192 h, 360 μg in 5% P80, Experiment 2, disks stored 8 days, no prediffusion, read-out: Zone diameter (mm ± SD)): 13 mm; zone of inhibition at 360 µg/disc (VISA Mu50 (ATCC 700699); Staphylococcus aureus, 336 h, 360 μg in 5% P80, Experiment 1, disks stored 14 days, no prediffusion, read-out: Zone diameter (mm ± SD)): 13.5 ± 0.7 mm; zone of inhibition at 360 µg/disc (VISA Mu50 (ATCC 700699); Staphylococcus aureus, 360 μg in 5% P80, Average of experiments, no prediffusion, read-out: Zone diameter (mm ± SD)): 13.3 ± 0.5 mm; zone of inhibition at 360 µg/disc (VISA Mu50 (ATCC 700699); Staphylococcus aureus, 360 μg in 5% P80, Average of experiments, prediffusion, read-out: Zone diameter (mm ± SD)): 14.3 ± 0.3 mm; zone of inhibition at 360 µg/disc (VISA Mu50 (ATCC 700699); Staphylococcus aureus, 360 μg in 5% P80, Experiment 1, disks stored 14 days, 3 h prediffusion at room temperature, read-out: Zone diameter (mm ± SD)): 14.5 mm; zone of inhibition at 360 µg/disc (VISA Mu50 (ATCC 700699); Staphylococcus aureus, 360 μg in 5% P80, Experiment 2, disks stored 8 days, 3 h prediffusion at room temperature, read-out: Zone diameter (mm ± SD)): 14 mm; zone of inhibition at 360 µg/disc (VISA Mu50 (ATCC 700699); Staphylococcus aureus, 360 μg oritavancin, excipient 5% P80, disks stored 5 days at room temperature, 3 h prediffusion, average of 2 disks, read-out: Average zone diameter): 15 mm; zone of inhibition at 25 µg/disc (VISA Mu50 (ATCC 700699); Staphylococcus aureus, Mu50, 25 μg in 4% P80/Span 80 (1:1), cotton swab, dried overnight, estimate of diameter): 7 mm; zone of inhibition at 50 µg/disc (VISA Mu50 (ATCC 700699); Staphylococcus aureus, Mu50, 50 μg in 4% P80/Span 80 (1:1), calcium alginate swab, dried overnight, read-out: Inhibition zone diameter): 7 mm; zone of inhibition at 50 µg/disc (VISA Mu50 (ATCC 700699); Staphylococcus aureus, Mu50, 50 μg in 4% P80/Span 80 (1:1), cotton swab, dried overnight, estimate of diameter): 10 mm; zone of inhibition at 50 µg/disc (VISA Mu50 (ATCC 700699); Staphylococcus aureus, Mu50, 50 μg, 4% P80/Span 80 ratio 50:50, dried overnight, estimate of diameter): 10 mm; zone of inhibition at 50 µg/disc (VISA Mu50 (ATCC 700699); Staphylococcus aureus, Mu50, 50 μg, 4% P80/Span 80 ratio 60:40, dried overnight, estimate of diameter): 11 mm; zone of inhibition at 50 µg/disc (VISA Mu50 (ATCC 700699); Staphylococcus aureus, Mu50, 50 μg, 4% P80/Span 80 ratio 70:30, dried overnight, estimate of diameter): 12 mm; zone of inhibition at 50 µg/disc (VISA Mu50 (ATCC 700699); Staphylococcus aureus, Mu50, 50 μg, 4% P80/Span 80 ratio 80:20, dried overnight, estimate of diameter): 12 mm; zone of inhibition at 50 µg/disc (VISA Mu50 (ATCC 700699); Staphylococcus aureus, Mu50, 50 μg, 4% P80/Span 80 ratio 90:10, dried overnight, estimate of diameter): 12 mm; zone of inhibition at 100 µg/disc (VISA Mu50 (ATCC 700699); [1]): 8 mm; zone of inhibition at 100 µg/disc (VISA Mu50 (ATCC 700699); [2]): 11 mm; zone of inhibition at 200 µg/disc (VISA Mu50 (ATCC 700699); [1]): 8 mm; zone of inhibition at 200 µg/disc (VISA Mu50 (ATCC 700699); [2]): 10 mm; zone of inhibition at 1250 µg/mL (VISA Mu50 (ATCC 700699); Staphylococcus aureus, Mu50, 20 μl of 1.25 mg/ml oritavancin in 1% poly(ethylene glycol) sorbitol hexaoleate, read-out: Inhibition zone diameter): 8 mm; zone of inhibition at 1250 µg/mL (VISA Mu50 (ATCC 700699); Staphylococcus aureus, Mu50, 20 μl of 1.25 mg/ml oritavancin in 5% Merpol SE, read-out: Inhibition zone diameter): 9 mm; zone of inhibition at 360 µg/disc (MRSA NRS121-ORI^RS; 360 μg in 5% P80, Average, no prediffusion): 13 mm; zone of inhibition at 360 µg/disc (MRSA NRS121-ORI^RS; 360 μg in 5% P80, Average, prediffusion): 14 mm; zone of inhibition at 360 µg/disc (MRSA NRS121-ORI^RS; 360 μg in 5% P80, Experiment 2, disks stored 8 days, 3 h prediffusion at room temperature): 14 mm; zone of inhibition at 360 µg/disc (MRSA NRS121-ORI^RS; 192 h, 360 μg in 5% P80, Experiment 2, disks stored 8 days, no prediffusion): 13 mm; zone of inhibition at 360 µg/disc (MRSA NRS123; no prediffusion): 16 ± 0.4 mm; zone of inhibition at 360 µg/disc (MRSA NRS123; prediffusion): 18.8 ± 0.9 mm
